pIC50: −log10 of the molar value. Each block holds one compound with its values, some of them ahead of it.
Assays:
[1] = Mean residence time in Sprague-Dawley rat at 5 mg/kg, po; assay type: ADME, organism-based; conditions: in vivo
[2] = Cmax in Sprague-Dawley rat at 5 mg/kg, po; assay type: ADME, organism-based; set-up: dose 5 mg/kg, route oral; conditions: in vivo
[3] = molecular target: Tyrosine-protein kinase JAK2 (Homo sapiens) (UniProt O60674); assay: Inhibition of JAK2 (unknown origin) at 10 uM
[4] = AUC (0 to t) in Sprague-Dawley rat at 5 mg/kg, iv; assay type: ADME, organism-based; conditions: in vivo
[5] = AUC (0 to infinity) in Sprague-Dawley rat at 5 mg/kg, iv; assay type: ADME, organism-based; set-up: dose 5 mg/kg, route intravenous, time infinity; conditions: in vivo
[6] = Mean residence time in Sprague-Dawley rat at 5 mg/kg, iv; assay type: ADME, organism-based; conditions: in vivo
[7] = molecular target: Serine/threonine-protein kinase PAK 4 (Homo sapiens) (UniProt O96013); assay: Inhibition of PAK4 (unknown origin) at 10 uM
[8] = Volume of distribution at steady state in Sprague-Dawley rat at 5 mg/kg, iv; assay type: ADME, organism-based; conditions: in vivo, read-out: Vdss
[9] = molecular target: T1, Aurora kinase A (Homo sapiens) (UniProt O14965); assay: Inhibition of aurora-A (unknown origin) at 10 uM
T1 sequence (whole entry): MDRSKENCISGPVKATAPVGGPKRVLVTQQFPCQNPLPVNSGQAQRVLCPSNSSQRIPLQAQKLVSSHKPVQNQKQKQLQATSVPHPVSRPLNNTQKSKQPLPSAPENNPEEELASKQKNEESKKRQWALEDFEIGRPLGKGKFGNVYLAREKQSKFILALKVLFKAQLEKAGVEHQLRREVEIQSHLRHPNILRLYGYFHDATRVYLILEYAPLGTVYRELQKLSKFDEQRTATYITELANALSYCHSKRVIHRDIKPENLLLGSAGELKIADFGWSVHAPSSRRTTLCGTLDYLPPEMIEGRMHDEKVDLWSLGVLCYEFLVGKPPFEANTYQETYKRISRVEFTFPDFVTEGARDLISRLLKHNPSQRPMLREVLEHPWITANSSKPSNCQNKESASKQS

[10] = Tmax in Sprague-Dawley rat at 5 mg/kg, iv; assay type: ADME, organism-based; conditions: in vivo
[11] = Terminal half life in Sprague-Dawley rat at 5 mg/kg, po; assay type: ADME, organism-based; conditions: in vivo, read-out: beta t1/2 (converted)
[12] = molecular target: T2, Non-receptor tyrosine-protein kinase TYK2 (Homo sapiens, UniProt P29597); assay: Inhibition of Tyk2 (unknown origin)
[13] = Systemic plasma clearance in Sprague-Dawley rat at 5 mg/kg, iv; assay type: ADME, organism-based
[14] = Terminal half life in Sprague-Dawley rat at 5 mg/kg, iv; assay type: ADME, organism-based; conditions: in vivo, read-out: beta t1/2 (converted)
[15] = molecular target: T2, Non-receptor tyrosine-protein kinase TYK2; assay: Inhibition of Tyk2 (unknown origin) at 10 uM
[16] = Tmax in Sprague-Dawley rat at 5 mg/kg, po; assay type: ADME, organism-based; conditions: in vivo
[17] = Oral bioavailability in Sprague-Dawley rat at 5 mg/kg; assay type: ADME, organism-based; conditions: in vivo
[18] = AUC (0 to infinity) in Sprague-Dawley rat at 5 mg/kg, po; assay type: ADME, organism-based; set-up: dose 5 mg/kg, time infinity, route oral; conditions: in vivo
[19] = AUC (0 to t) in Sprague-Dawley rat at 5 mg/kg, po; assay type: ADME, organism-based; conditions: in vivo
[20] = Cmax in Sprague-Dawley rat at 5 mg/kg, iv; assay type: ADME, organism-based; set-up: dose 5 mg/kg, route intravenous; conditions: in vivo
[21] = molecular target: T3, Tyrosine-protein kinase JAK3 (Homo sapiens) (UniProt P52333); assay: Inhibition of JAK3 (unknown origin) at 10 uM
T3 sequence (whole entry): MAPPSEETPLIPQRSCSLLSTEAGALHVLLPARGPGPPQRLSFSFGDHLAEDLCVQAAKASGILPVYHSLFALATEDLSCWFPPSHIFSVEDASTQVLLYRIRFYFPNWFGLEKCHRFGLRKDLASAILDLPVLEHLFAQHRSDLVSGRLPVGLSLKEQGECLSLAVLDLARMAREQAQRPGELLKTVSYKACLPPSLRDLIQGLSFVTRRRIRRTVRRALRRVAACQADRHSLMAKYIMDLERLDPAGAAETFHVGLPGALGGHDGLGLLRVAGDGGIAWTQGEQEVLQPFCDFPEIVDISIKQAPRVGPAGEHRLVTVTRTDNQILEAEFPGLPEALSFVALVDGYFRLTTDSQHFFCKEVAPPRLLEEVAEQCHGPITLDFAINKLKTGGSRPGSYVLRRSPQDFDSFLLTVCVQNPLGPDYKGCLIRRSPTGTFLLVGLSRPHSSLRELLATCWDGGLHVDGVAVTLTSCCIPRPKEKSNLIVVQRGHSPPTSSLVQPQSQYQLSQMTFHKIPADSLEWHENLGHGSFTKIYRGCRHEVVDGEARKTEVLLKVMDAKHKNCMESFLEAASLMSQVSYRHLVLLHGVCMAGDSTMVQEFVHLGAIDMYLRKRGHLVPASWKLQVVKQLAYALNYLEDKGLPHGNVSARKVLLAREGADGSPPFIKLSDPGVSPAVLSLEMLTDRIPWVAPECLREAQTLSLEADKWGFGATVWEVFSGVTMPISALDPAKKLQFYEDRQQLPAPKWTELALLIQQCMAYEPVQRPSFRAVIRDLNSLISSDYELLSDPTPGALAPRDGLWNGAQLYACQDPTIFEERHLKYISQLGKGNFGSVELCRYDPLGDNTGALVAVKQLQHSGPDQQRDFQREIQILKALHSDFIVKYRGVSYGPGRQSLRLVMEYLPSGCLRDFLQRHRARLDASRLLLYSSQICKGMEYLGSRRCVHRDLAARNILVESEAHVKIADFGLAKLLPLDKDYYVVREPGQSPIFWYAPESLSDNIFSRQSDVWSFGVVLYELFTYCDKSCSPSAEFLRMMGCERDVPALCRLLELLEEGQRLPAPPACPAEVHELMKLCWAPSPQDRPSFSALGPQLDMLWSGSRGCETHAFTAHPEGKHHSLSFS

[22] = molecular target: T2, Non-receptor tyrosine-protein kinase TYK2; assay: Inhibition of Tyk2 (unknown origin) at 100 uM
[23] = molecular target: T2, Non-receptor tyrosine-protein kinase TYK2; assay: Inhibition of Tyk2 (unknown origin) at 3 uM
[24] = molecular target: T2, Non-receptor tyrosine-protein kinase TYK2; assay: Inhibition of Tyk2 (unknown origin) at 30 uM

T2 sequence (P29597 whole entry): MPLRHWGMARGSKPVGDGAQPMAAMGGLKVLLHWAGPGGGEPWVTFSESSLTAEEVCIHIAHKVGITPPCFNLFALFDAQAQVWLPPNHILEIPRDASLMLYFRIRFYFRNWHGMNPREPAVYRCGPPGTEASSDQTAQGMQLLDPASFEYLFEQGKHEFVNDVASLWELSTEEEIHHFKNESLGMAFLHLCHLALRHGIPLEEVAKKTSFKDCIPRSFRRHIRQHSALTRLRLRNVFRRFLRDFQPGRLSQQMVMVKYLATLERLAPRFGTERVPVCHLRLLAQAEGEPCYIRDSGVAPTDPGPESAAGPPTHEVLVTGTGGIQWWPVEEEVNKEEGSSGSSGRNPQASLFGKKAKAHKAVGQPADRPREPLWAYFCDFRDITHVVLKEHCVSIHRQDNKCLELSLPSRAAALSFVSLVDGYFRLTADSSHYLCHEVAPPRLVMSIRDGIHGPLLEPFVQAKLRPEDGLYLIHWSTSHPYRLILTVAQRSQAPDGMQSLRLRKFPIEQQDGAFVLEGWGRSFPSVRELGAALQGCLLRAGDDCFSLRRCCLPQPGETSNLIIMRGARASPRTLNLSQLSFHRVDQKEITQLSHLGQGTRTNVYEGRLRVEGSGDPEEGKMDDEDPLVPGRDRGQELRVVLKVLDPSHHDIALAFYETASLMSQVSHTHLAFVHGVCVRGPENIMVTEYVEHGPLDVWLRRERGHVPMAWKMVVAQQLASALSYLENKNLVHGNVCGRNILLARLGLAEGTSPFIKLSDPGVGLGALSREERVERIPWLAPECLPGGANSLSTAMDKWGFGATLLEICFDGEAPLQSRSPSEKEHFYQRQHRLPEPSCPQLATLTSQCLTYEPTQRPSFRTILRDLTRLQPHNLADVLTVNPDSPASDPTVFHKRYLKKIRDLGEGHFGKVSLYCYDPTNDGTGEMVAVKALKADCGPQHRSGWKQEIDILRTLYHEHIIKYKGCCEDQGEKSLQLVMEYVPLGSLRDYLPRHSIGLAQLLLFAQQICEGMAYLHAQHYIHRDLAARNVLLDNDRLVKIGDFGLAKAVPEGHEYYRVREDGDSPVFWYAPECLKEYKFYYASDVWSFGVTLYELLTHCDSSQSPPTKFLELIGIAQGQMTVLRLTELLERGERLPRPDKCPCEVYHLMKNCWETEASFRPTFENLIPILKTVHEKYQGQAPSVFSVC
Serine/threonine-protein kinase PAK 4 (Homo sapiens), sequence (O96013 whole entry, looked up): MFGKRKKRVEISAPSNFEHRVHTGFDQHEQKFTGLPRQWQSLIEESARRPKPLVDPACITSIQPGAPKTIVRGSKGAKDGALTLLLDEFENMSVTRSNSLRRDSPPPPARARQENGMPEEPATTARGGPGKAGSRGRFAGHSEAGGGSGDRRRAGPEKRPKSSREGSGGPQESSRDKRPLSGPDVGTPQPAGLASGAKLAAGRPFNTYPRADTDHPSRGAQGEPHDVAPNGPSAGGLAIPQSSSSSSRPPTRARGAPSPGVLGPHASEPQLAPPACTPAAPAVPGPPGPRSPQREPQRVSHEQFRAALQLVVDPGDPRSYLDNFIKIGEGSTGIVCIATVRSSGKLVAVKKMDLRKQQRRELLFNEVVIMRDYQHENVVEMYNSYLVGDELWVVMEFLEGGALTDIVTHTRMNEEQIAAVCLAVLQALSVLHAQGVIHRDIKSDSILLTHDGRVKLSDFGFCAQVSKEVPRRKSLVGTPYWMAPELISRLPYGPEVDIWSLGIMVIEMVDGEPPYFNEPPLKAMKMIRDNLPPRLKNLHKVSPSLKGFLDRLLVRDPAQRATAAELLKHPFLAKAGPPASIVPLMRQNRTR
Tyrosine-protein kinase JAK2 (Homo sapiens), sequence (O60674 whole entry): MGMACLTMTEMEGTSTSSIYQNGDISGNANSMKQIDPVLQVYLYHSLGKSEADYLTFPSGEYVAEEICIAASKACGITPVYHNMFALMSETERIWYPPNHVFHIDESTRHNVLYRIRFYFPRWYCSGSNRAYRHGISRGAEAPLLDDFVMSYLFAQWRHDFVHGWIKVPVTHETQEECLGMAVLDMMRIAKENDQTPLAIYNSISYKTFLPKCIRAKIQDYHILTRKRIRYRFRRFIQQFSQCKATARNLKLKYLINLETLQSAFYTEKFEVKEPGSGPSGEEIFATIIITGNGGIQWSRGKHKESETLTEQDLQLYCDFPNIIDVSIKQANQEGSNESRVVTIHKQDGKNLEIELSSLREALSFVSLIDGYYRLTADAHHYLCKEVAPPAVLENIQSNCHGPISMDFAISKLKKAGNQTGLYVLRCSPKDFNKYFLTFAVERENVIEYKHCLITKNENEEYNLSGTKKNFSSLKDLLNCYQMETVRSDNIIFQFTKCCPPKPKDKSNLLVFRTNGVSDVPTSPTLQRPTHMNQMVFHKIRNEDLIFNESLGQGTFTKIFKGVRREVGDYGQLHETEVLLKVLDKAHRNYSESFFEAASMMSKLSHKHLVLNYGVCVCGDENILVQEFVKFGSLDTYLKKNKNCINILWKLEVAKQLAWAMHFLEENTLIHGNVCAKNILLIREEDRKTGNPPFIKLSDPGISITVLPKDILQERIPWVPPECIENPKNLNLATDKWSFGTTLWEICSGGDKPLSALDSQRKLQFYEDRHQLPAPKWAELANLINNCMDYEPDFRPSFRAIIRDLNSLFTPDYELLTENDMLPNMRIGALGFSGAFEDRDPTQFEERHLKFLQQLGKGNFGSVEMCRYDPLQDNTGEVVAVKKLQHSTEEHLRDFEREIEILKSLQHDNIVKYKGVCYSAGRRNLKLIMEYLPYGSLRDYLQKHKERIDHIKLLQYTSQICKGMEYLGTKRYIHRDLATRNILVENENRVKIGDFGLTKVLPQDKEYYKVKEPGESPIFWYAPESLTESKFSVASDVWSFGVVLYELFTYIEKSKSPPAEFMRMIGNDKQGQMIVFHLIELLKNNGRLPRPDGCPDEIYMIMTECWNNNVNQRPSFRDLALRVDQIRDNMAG

MRT [1]: 102 min
Cmax [2]: 70 ng/mL
inhibition [3]: > 90%
AUC(0-t) [4]: 1420 ng·h/mL
AUC(0-inf) [5]: 1430 ng·h/mL
MRT [6]: 47.4 min
inhibition [7]: < 50%
Vd [8]: 2.76 L/kg
inhibition [9]: > 90%
Tmax [10]: 4.8 min
half-life [11]: 105 min
pIC50 [12]: 8.00
clearance [13]: 59 mL/min/kg
half-life [14]: 49.8 min
inhibition [15]: 99%
Tmax [16]: 19.8 min
bioavailability [17]: 6.07%
AUC(0-inf) [18]: 90 ng·h/mL
AUC(0-t) [19]: 80 ng·h/mL
Cmax [20]: 1340 ng/mL
inhibition [21]: > 90%
Compound: CC(C)c1nn(C)cc1-c1nc2c(N3CCN(Cc4cccnc4)CC3)c(Br)cnc2[nH]1

inhibition [15]: 38%
Compound: CC(C)c1nn(-c2ccccc2)cc1-c1nc2cc(Br)cnc2[nH]1

inhibition [15]: < 30%
Compound: CC(C)c1n[nH]cc1-c1nc2cc(Br)cnc2[nH]1

inhibition [22]: 97%
inhibition [23]: 60%
inhibition [15]: 83%
inhibition [24]: 92%
Compound: CC(C)c1nn(C)cc1-c1nc2cc(Br)cnc2[nH]1
